Legend:
hepatocytes = assay: Metabolic profiling of imaging agents in cryopreserved hepatocytes (HPLC with radiodetection); assay type: in vitro ADME; conditions: hepatocytes 1×10^6 cells/mL, 37° C./5% CO2; species and incubation time not given
Description: Cryopreserved hepatocytes were purchased from Celsis/In Vitro Technologies, Inc. (Baltimore, Md.) and stored at −150° C. prior to use. Multiple lots of hepatocytes for human (mixed sexes 5-donor pool), primate (male, rhesus monkey), dog (male, beagle), rabbit (male, New Zealand white) and rat (male, Sprague-Dawley) were used. On the day of the study, hepatocytes in cryopreserved vials were vented to release any liquid N2 then placed into a 37° C. water bath for 75-90 seconds to thaw. The hepatocytes were transferred into pre-warmed KHB and centrifuged for 5 min at 50×g. The supernatant was discarded and the hepatocytes re-suspended in KHB at a concentration of 1×10^6 cells/mL. Cell viability was confirmed by Trypan blue exclusion.
Test compounds were incubated in hepatocytes (1×10^6 cells/mL; 0.5 mL) were incubated for 0, 15, 30, 60 or 180 min at 37° C./5% CO2 then transferred directly into acetonitrile (1.0 mL), vortexed for 30 s and centrifuged at 2500×g for 20 min. The supernatant was then transferred to a new centrifuge tube, acetonitrile evaporated under a stream of nitrogen in a heating block at 37° C. and, following re-constitution in water, assayed by HPLC with radiodetection.
Extracted samples and standards were analyzed on an Agilent 1100 HPLC (Agilent Technologies, Burlington, Mass.) using a Phenomenex Luna C18 column (5μ; 4.6×150 mm), maintained at ambient temperature (25° C.), and a flow rate of 1.0 mL/min. Mobile phase A contained 0.1% formic acid in water, and mobile phase B contained 0.1% formic acid in acetonitrile. A linear gradient from 5 to 90% B over 15 min was used for elution. A 5 min post-time of 5% B was used to re-equilibrate the column. Radioactive products were recorded using in-line γ- or β-flow detectors (INUS, Tampa, Fla.).

[1] = Tissue distribution of 18F imaging agents in rats; assay type: in vivo, Male Sprague Dawley rats; conditions: rat, iv tail vein ~15 μCi, ± SEM; for Blood, imaging agent distribution at 15 min / Brain, imaging agent distribution at 15 min / Femur, imaging agent distribution at 15 min / Heart, imaging agent distribution at 15 min / Kidney, imaging agent distribution at 15 min / Liver, imaging agent distribution at 15 min / Lung, imaging agent distribution at 15 min / Muscle, imaging agent distribution at 15 min / Pancreas, imaging agent distribution at 15 min / Spleen, imaging agent distribution at 15 min: 15 min post injection; for Blood, imaging agent distribution at 60 min / Brain, imaging agent distribution at 60 min / Femur, imaging agent distribution at 60 min / Heart, imaging agent distribution at 60 min / Kidney, imaging agent distribution at 60 min / Liver, imaging agent distribution at 60 min / Lung, imaging agent distribution at 60 min / Muscle, imaging agent distribution at 60 min / Pancreas, imaging agent distribution at 60 min / Spleen, imaging agent distribution at 60 min: 60 min post injection
Description: Anesthetized (sodium pentobarbital at 50 mg/kg, ip or isoflurane gas inhalation) Male Sprague Dawley rats (250-350 g) received an iv injection of the imaging agent (˜15 μCi) via the tail vein. At 15 or 60 min post injection, the animals were euthanized and the required tissue samples harvested. All samples were then weighed and counted for radioactivity (Wallac Wizard 1480 or Packard Cobra II Autogamma); regional tissue uptake of the imaging agent was thus expressed as a percentage of the total injected dose per gram of tissue (% ID/g).
The generic structure depicted below highlights specific structural features evaluated during distribution experiments.

Row | Blood, imaging agent distribution at 15 min [1] [% ID/g] | Brain, imaging agent distribution at 15 min [1] [% ID/g] | Femur, imaging agent distribution at 15 min [1] [% ID/g] | Heart, imaging agent distribution at 15 min [1] [% ID/g] | Kidney, imaging agent distribution at 15 min [1] [% ID/g] | Liver, imaging agent distribution at 15 min [1] [% ID/g] | Lung, imaging agent distribution at 15 min [1] [% ID/g] | Muscle, imaging agent distribution at 15 min [1] [% ID/g] | Pancreas, imaging agent distribution at 15 min [1] [% ID/g] | Spleen, imaging agent distribution at 15 min [1] [% ID/g] | Blood, imaging agent distribution at 60 min [1] [% ID/g] | Brain, imaging agent distribution at 60 min [1] [% ID/g] | Femur, imaging agent distribution at 60 min [1] [% ID/g] | Heart, imaging agent distribution at 60 min [1] [% ID/g] | Kidney, imaging agent distribution at 60 min [1] [% ID/g] | Liver, imaging agent distribution at 60 min [1] [% ID/g] | Lung, imaging agent distribution at 60 min [1] [% ID/g] | Muscle, imaging agent distribution at 60 min [1] [% ID/g] | Pancreas, imaging agent distribution at 60 min [1] [% ID/g] | Spleen, imaging agent distribution at 60 min [1] [% ID/g] | Compound | further results
1 | 0.11 ± 0.02 | 0.49 ± 0.10 | 0.28 ± 0.04 | 2.34 ± 0.57 | 1.13 ± 0.11 | 0.33 ± 0.02 | 0.19 ± 0.03 | 0.28 ± 0.13 | 0.43 ± 0.10 | 0.18 ± 0.01 | 0.16 ± 0.01 | 0.36 ± 0.01 | 0.31 ± 0.02 | 1.78 ± 0.15 | 0.48 ± 0.04 | 0.30 ± 0.01 | 0.19 ± 0.01 | 0.35 ± 0.09 | 0.23 ± 0.02 | 0.13 ± 0.00 | Cc1c(OCc2ccc(COCCF)cc2)cnn(C(C)(C)C)c1=O [Example 67I] | 
2 | 0.50 ± 0.02 | 0.36 ± 0.01 | 0.28 ± 0.02 | 1.19 ± 0.25 | 0.39 ± 0.01 | 0.32 ± 0.01 | 0.39 ± 0.02 | 0.38 ± 0.04 | 0.23 ± 0.02 | 0.34 ± 0.01 | 0.58 ± 0.04 | 0.43 ± 0.02 | 0.40 ± 0.03 | 0.50 ± 0.03 | 0.42 ± 0.02 | 0.35 ± 0.02 | 0.42 ± 0.02 | 0.31 ± 0.02 | 0.23 ± 0.03 | 0.37 ± 0.02 | CC(C)(C)n1ncc(OCc2ccc(C(=O)OCCF)cc2)c(Cl)c1=O [Example 67J] | 
3 | 0.07 ± 0.03 | 0.36 ± 0.04 | 0.27 ± 0.02 | 2.68 ± 0.35 | 1.35 ± 0.14 | 0.99 ± 0.06 | 0.37 ± 0.15 | 0.28 ± 0.02 | 0.55 ± 0.10 | 0.31 ± 0.09 | 0.03 ± 0.00 | 0.36 ± 0.03 | 0.37 ± 0.05 | 2.46 ± 0.27 | 0.83 ± 0.08 | 0.83 ± 0.17 | 0.15 ± 0.03 | 0.39 ± 0.04 | 0.38 ± 0.02 | 0.11 ± 0.02 | CC(C)(C)n1ncc(OCc2ccc(C#CCCF)cc2)c(Cl)c1=O [Example 67K] | 
4 | 0.14 ± 0.01 | 0.30 ± 0.05 | 0.31 ± 0.01 | 1.19 ± 0.18 | 0.65 ± 0.07 | 1.71 ± 0.36 | 0.29 ± 0.03 | 0.27 ± 0.02 | 0.36 ± 0.06 | 0.18 ± 0.01 | 0.10 ± 0.02 | 0.22 ± 0.03 | 0.78 ± 0.15 | 0.62 ± 0.12 | 0.40 ± 0.08 | 2.06 ± 0.27 | 0.21 ± 0.02 | 0.20 ± 0.06 | 0.33 ± 0.08 | 0.11 ± 0.02 | CC(C)(C)n1ncc(OCc2ccc(-c3cnc(F)nc3)cc2)c(Cl)c1=O [Example 67L] | 
5 | 0.53 ± 0.13 | 0.55 ± 0.31 | 0.52 ± 0.19 | 2.54 ± 0.20 | 0.79 ± 0.07 | 0.96 ± 0.10 | 0.97 ± 0.13 | 0.24 ± 0.04 |  | 0.35 ± 0.05 | 0.73 ± 0.16 | 2.33 ± 0.12 | 0.43 ± 0.03 | 0.55 ± 0.06 | 0.43 ± 0.04 | 0.43 ± 0.04 | 1.03 ± 0.22 | 0.31 ± 0.04 |  | 0.26 ± 0.03 | CC(C)(C)n1ncc(CCc2ccc(COCCF)cc2)c(Cl)c1=O [Example 67M] | 
6 | 0.07 ± 0.03 | 0.36 ± 0.04 | 0.27 ± 0.02 | 2.68 ± 0.35 | 1.35 ± 0.14 | 0.99 ± 0.06 | 0.37 ± 0.15 | 0.28 ± 0.02 | 0.55 ± 0.10 | 0.31 ± 0.09 | 0.03 ± 0.00 | 0.36 ± 0.03 | 0.37 ± 0.05 | 2.46 ± 0.27 | 0.83 ± 0.08 | 0.83 ± 0.17 | 0.15 ± 0.03 | 0.39 ± 0.04 | 0.38 ± 0.02 | 0.11 ± 0.02 | CC(C)(C)n1ncc(OCc2ccc(Oc3cccnc3F)cc2)c(Cl)c1=O [Example 67O] | 

More lines, now with the values behind:

Row | Compound | Blood, imaging agent distribution at 15 min [1] [% ID/g] | Brain, imaging agent distribution at 15 min [1] [% ID/g] | Femur, imaging agent distribution at 15 min [1] [% ID/g] | Heart, imaging agent distribution at 15 min [1] [% ID/g] | Kidney, imaging agent distribution at 15 min [1] [% ID/g] | Liver, imaging agent distribution at 15 min [1] [% ID/g] | Lung, imaging agent distribution at 15 min [1] [% ID/g] | Muscle, imaging agent distribution at 15 min [1] [% ID/g] | Pancreas, imaging agent distribution at 15 min [1] [% ID/g] | Spleen, imaging agent distribution at 15 min [1] [% ID/g] | Blood, imaging agent distribution at 60 min [1] [% ID/g] | Brain, imaging agent distribution at 60 min [1] [% ID/g] | Femur, imaging agent distribution at 60 min [1] [% ID/g] | Heart, imaging agent distribution at 60 min [1] [% ID/g] | Kidney, imaging agent distribution at 60 min [1] [% ID/g] | Liver, imaging agent distribution at 60 min [1] [% ID/g] | Lung, imaging agent distribution at 60 min [1] [% ID/g] | Muscle, imaging agent distribution at 60 min [1] [% ID/g] | Pancreas, imaging agent distribution at 60 min [1] [% ID/g] | Spleen, imaging agent distribution at 60 min [1] [% ID/g] | further results
7 | CC(C)n1ncc(OCc2ccc(COCCF)cc2)c(Cl)c1=O [Example 1, 4-chloro-5-((4-((2-fluoroethoxy)methyl)benzyl)oxy)-2-isopropylpyridazin-3(2H)-one] |  |  |  |  |  |  |  |  |  |  |  |  |  |  |  |  |  |  |  |  | % Parent Remaining (hepatocytes): 20%
8 | [2H]C([2H])(OCCF)c1ccc(COc2cnn(C(C)(C)C)c(=O)c2Cl)cc1 [Example 9, 2-(tert-butyl)-4-chloro-5-((4-((2-fluoroethoxy)-d2-methyl)benzyl)oxy)pyridazin-3(2H)-one] |  |  |  |  |  |  |  |  |  |  |  |  |  |  |  |  |  |  |  |  | % Parent Remaining (hepatocytes): 73%
9 | CC(OCCF)c1ccc(COc2cnn(C(C)(C)C)c(=O)c2Cl)cc1 (stereo not shown) [Example 16, 2-(tert-butyl)-4-chloro-5-((4-(1-(2-fluoroethoxyl)ethyl)benzyl)oxy)pyridazin-3(2H)-one] |  |  |  |  |  |  |  |  |  |  |  |  |  |  |  |  |  |  |  |  | % Parent Remaining (hepatocytes): 20%
10 | CC(C)(C)n1ncc(OCc2ccc([Si](F)(C(C)(C)C)C(C)(C)C)cc2)c(Cl)c1=O [Example 67N] | 0.22 ± 0.04 | 0.03 ± 0.00 | 0.14 ± 0.02 | 0.65 ± 0.09 | 0.51 ± 0.09 | 4.91 ± 0.49 | 1.31 ± 0.24 | 0.06 ± 0.00 |  | 3.47 ± 0.80 |  |  |  |  |  |  |  |  |  |  | 

Source: patent US9713651B2, “Compositions, methods, and systems for the synthesis and use of imaging agents” (Lantheus Medical Imaging, Inc., priority 2012, dated 2017)
